Measured values: ChEMBL document CHEMBL1150952, “Isolation, identification, and biological activity of isopersin, a new compound from avocado idioblast oil cells” (1998)

Experiments:
Spodoptera exigua [1] = test: Insecticidal activity against early instar Spodoptera exigua assessed as mortality at 500 ug/g after 7 days by artificial diet bioassay relative to control; format: functional
Spodoptera exigua [2] = test: Insecticidal activity against early instar Spodoptera exigua assessed as larval weight at 500 ug/g after 7 days by artificial diet bioassay; format: functional

Compound	Activity (Spodoptera exigua [1])	Activity (Spodoptera exigua [2])
CCCCC/C=C\C/C=C\CCCCCCCC(=O)CC(CO)OC(C)=O (stereo not drawn) [ISOPERSIN]	12%	26.45 mg
CCCCC/C=C\C/C=C\CCCCCCCC(=O)C[C@@H](O)COC(C)=O	80%	
